In patent US20030216319A1, “Specific autoimmune reactions against isomerised/optically inverted epitopes: application for treatment of autoimmune diseases” (priority 2000, published 2003):

Experiments:
[1] = system: immunoaffinity purified RA auto-antibodies; experiment: Immuno-blotting of cellulose-bound spot peptides with immunoaffinity purified RA auto-antibodies (Example 5); format: binding, human; details: IgM RF eluate 1 μg/mL
Protocol: 1. IgG is coupled to CNBr activated Sepharose using the manufacturers instructions (Pharmacia, Upsala, Sweden).
2. The IgG Sepharose is packed in a suitable column (i.e. a disposable DG10 column, BioRad laboratories, Richmond, Calif.). The column is washed with at least 10 column volumes PBS and with 10 column volumes 0.1 M sodium acetate, 0.15 M sodium chloride pH 3.5 and finally equilibrated in PBS.
3. Serum from RA patients is diluted 10 times in PBS and loaded on the column. The column is washed with PBS until the absorbency (OD 280 nm) reaches base-line.
4. Bound RF's are eluted with 0.1 M sodium acetate, 0.15 M sodium chloride pH 3.5.
5. IgM is separated from IgG and IgA by gel-filtration on a Sephadex G-200 column in 0.1 M sodium acetate, 0.15 M sodium chloride pH 3.5.
6. Eluted IgM is diluted in PBS-BT to 1 μg/mL and assayed as described below.
Seven amino-acid peptides extending over the Asn-315 residue were synthesised by spot synthesis using Whatman 540 paper (Maidstone, U.K.), using the previously described procedures (Frank, 1992, Kramer et al 1994). The peptides were automatically prepared using a spot synthesis method (Abimed, Langenfeld, FRG). The following peptides were synthesised, covalently attached via the carboxy-terminus:
The cellulose membrane containing these peptides was incubated with the immunoaffinity purified RA auto-antibodies purified as described above. […]

human immunoglobulin = experiment: Homogeneous RIA with 125I-BSA-BS3-Pro-Ser-Glu-γ-Gly-Lys-Gly-Arg-Gly in MS and control sera (Example 9); format: binding
Description: For this purpose the MBP derived octapeptide Pro-Ser-Glu-γ-Gly-Lys-Gly-Arg-Gly (γL) was manufactured synthetically using standard FMOC chemistry. The peptide was conjugated to bovine serum albumin (BSA) by Bis[sulfosuccinimidyl]suberate (BS^3) according to the manufacturers instructions (Pierce) and iodinated with ^125I using the chloramine T protocol as described in Example 4.
Serum from 9 MS-patients and 8 healthy persons are reacted overnight with ^125I-BSA-BS^3-Pro-Ser-Glu-γ-Gly-Lys-Gly-Arg-Gly followed by precipitation of immune complexes with protein A Sepharose. Serum samples are diluted 1:200 in IMP buffer. The ^125I BSA-BS^3-Pro-Ser-Glu-γ-Gly-Lys-Gly-Arg-Gly tracer is diluted in IMP buffer (to an activity of 100000 CPM/25 μl). Seventy-five μl of diluted serum sample is mixed with 25 μl tracer and 25 μl of either IMP buffer or free (unconjugated/unlabelled) Pro-Ser-Glu-γ-Gly-Lys-Gly-Arg-Gly peptide (in a concentration of […] in IMP buffer) is added to this mixture. This mixture is incubated overnight at 4° C. Protein. A Sepharose (PAS) 20 μl/sample vial is weighed out and washed 3 times with 10 ml IMP washing buffer, and transferred to eppendorf 1.5 ml tubes using a repeater pipette. The PAS is sedimented by centrifugation at 2000 RPM 2 min., and the supernatant is aspirated using a suction device (or a pipette). […]

## His-Gln-Asp-Trp-Leu-Asp-β-Gly... [peptide IV]
[1]
  reactivity of purified RA auto-antibodies towards cellulose-bound peptide: strong reactivity

## Pro-Ser-Glu-γ-Gly-Lys-Gly-Arg-Gly
Human immunoglobulin; 25 μl free peptide, 10 μl/mL in IMP buffer
  inhibition of binding of tracer conjugate to human immunoglobulin by free peptide: could be specifically inhibited
Human immunoglobulin; p=0.008, two-tailed non-parametric t-test
  % inhibition of immunoglobulin binding by free peptide, MS sera compared to control sera: significantly higher
